Results: patent US20260008776A1 (HANGZHOU POLYMED BIOPHARMACEUTICALS, INC., priority 2023, published 2026)
Read-outs that look alike come from different tables or passages of the source.

Legend:
DVS test of salt forms = type: physicochemical; details: for Hygroscopicity (DVS), in words: 0% to 90% humidity, two cycles
From the text: 1. The instrument sample pan was first tared and balanced.
3. The program was run: starting from 0% humidity as the initial point, slowly increasing to 90%, then returning to 0% to complete the cycle 1; rising again to 90% and decreasing back to 0% to conclude, completing the cycle 2 (as shown in FIGS. 35-36).

[1] = Solubility test of salts in pH buffers, water and physiological solutions; type: physicochemical
Description: The solubility of dominant salts in different pH buffers, water, and physiological solutions was determined. The specific steps for solubility determination are as follows: […] The vials were sealed, transferred to a magnetic stirrer, and maintained at 25° C. with a stirring rate of 500 rpm for 24 hours. The dissolution status in sample vials was recorded during the test. After 24 hours, approximately 1 mL of the suspension was filtered, and the filtrate was collected for solubility test via HPLC analysis. The pH value of the filtrate sample was measured using a pH meter.

[2] = type: physicochemical
Description: The glass dishes or glass vials were then placed in different environments of the constant temperature and humidity chamber, with conditions including: illumination: 4500±500 Lux (open); high temperature: 60° C.

[3] = High Relative Humidity (RH = 90 ± 5%, Open, 25° C.), 5 Days
[4] = High Relative Humidity (RH = 90 ± 5%, Open, 25° C.), 11 Days
[5] = High Temperature (60° C., Sealed), 5 Days
[6] = High Temperature (60° C., Sealed), 11 Days
[7] = Strong Illumination (Open), 5 Days
[8] = Strong Illumination (Open), 11 Days

CC(C)(O)CCn1cc2cc(NC(=O)c3coc(-c4ccnc(C(F)(F)F)c4)n3)c(C(C)(C)O)cc2n1.Cl [crystal form A of hydrochloride salt]
Change of the sample before and after the DVS test (DVS test of salt forms): no changes are observed | Hygroscopicity (DVS), in words (DVS test of salt forms): low hygroscopicity | Water Sorption at 90% Relative Humidity (DVS test of salt forms): 0.42% Water Sorption at 90% Relative Humidity | Desorption (DVS test of salt forms; cycle 1, 0% humidity): −0.06% | Sorption (DVS test of salt forms; cycle 1, 0% humidity): 0.00% | Desorption (DVS test of salt forms; cycle 1, 10% humidity): −0.02% | Sorption (DVS test of salt forms; cycle 1, 10% humidity): −0.02% | Desorption (DVS test of salt forms; cycle 1, 20% humidity): 0.01% | Sorption (DVS test of salt forms; cycle 1, 20% humidity): 0.00% | Desorption (DVS test of salt forms; cycle 1, 30% humidity): 0.04% | Sorption (DVS test of salt forms; cycle 1, 30% humidity): 0.03% | Desorption (DVS test of salt forms; cycle 1, 40% humidity): 0.07% | Sorption (DVS test of salt forms; cycle 1, 40% humidity): 0.06% | Desorption (DVS test of salt forms; cycle 1, 50% humidity): 0.11% | Sorption (DVS test of salt forms; cycle 1, 50% humidity): 0.09% | Desorption (DVS test of salt forms; cycle 1, 60% humidity): 0.16% | Sorption (DVS test of salt forms; cycle 1, 60% humidity): 0.13% | Desorption (DVS test of salt forms; cycle 1, 70% humidity): 0.21% | Sorption (DVS test of salt forms; cycle 1, 70% humidity): 0.17% | Desorption (DVS test of salt forms; cycle 1, 80% humidity): 0.30% | Sorption (DVS test of salt forms; cycle 1, 80% humidity): 0.28% | Desorption (DVS test of salt forms; cycle 1, 90% humidity): 0.42% | Sorption (DVS test of salt forms; cycle 1, 90% humidity): 0.42% | Desorption (DVS test of salt forms; cycle 2, 0% humidity): −0.05% | Sorption (DVS test of salt forms; cycle 2, 0% humidity): −0.06% | Desorption (DVS test of salt forms; cycle 2, 10% humidity): −0.02% | Sorption (DVS test of salt forms; cycle 2, 10% humidity): −0.03% | Desorption (DVS test of salt forms; cycle 2, 20% humidity): 0.01% | Sorption (DVS test of salt forms; cycle 2, 20% humidity): 0.01% | Desorption (DVS test of salt forms; cycle 2, 30% humidity): 0.05% | Sorption (DVS test of salt forms; cycle 2, 30% humidity): 0.03% | Desorption (DVS test of salt forms; cycle 2, 40% humidity): 0.08% | Sorption (DVS test of salt forms; cycle 2, 40% humidity): 0.07% | Desorption (DVS test of salt forms; cycle 2, 50% humidity): 0.12% | Sorption (DVS test of salt forms; cycle 2, 50% humidity): 0.10% | Desorption (DVS test of salt forms; cycle 2, 60% humidity): 0.17% | Sorption (DVS test of salt forms; cycle 2, 60% humidity): 0.14% | Desorption (DVS test of salt forms; cycle 2, 70% humidity): 0.22% | Sorption (DVS test of salt forms; cycle 2, 70% humidity): 0.19% | Desorption (DVS test of salt forms; cycle 2, 80% humidity): 0.32% | Sorption (DVS test of salt forms; cycle 2, 80% humidity): 0.30% | Desorption (DVS test of salt forms; cycle 2, 90% humidity): 0.45% | Sorption (DVS test of salt forms; cycle 2, 90% humidity): 0.45% | Solubility at 25° C. ([1]; Buffer pH = 1.0, 24 hours): 172.73 µg/mL | Solubility at 25° C. ([1]; Buffer pH = 6.8, 24 hours): <LOD | Solubility at 25° C. ([1]; FaSSIF (pH = 6.5), 24 hours): 2.09 µg/mL | Solubility at 25° C. ([1]; FeSSIF (pH = 5.0), 24 hours): 7.86 µg/mL | Solubility at 25° C. ([1]; SGF (pH = 1.2), 24 hours): 2.20 µg/mL | Solubility at 25° C. ([1]; Water, 24 hours): <LOD | Solid-state stability evaluation [2]: good physical and chemical stability | Color Change [2, 3]: No Change | Purity [2, 3]: 99.65% | Salt Type [2, 3]: No Change | Color Change [2, 4]: No Change | Purity [2, 4]: 99.79% | Salt Type [2, 4]: No Change | Color Change [2, 5]: No Change | Purity [2, 5]: 99.64% | Salt Type [2, 5]: No Change | Color Change [2, 6]: No Change | Purity [2, 6]: 99.48% | Salt Type [2, 6]: No Change | Purity ([2]; Initial State): 98.53% | Color Change ([2]; Initial State (colour)): White | Color Change [2, 7]: No Change | Purity [2, 7]: 99.68% | Salt Type [2, 7]: No Change | Color Change [2, 8]: No Change | Purity [2, 8]: 99.56% | Salt Type [2, 8]: No Change

CC(C)(O)CCn1cc2cc(NC(=O)c3coc(-c4ccnc(C(F)(F)F)c4)n3)c(C(C)(C)O)cc2n1.O=P(O)(O)O [crystal form A of phosphate salt]
Change of the sample before and after the DVS test (DVS test of salt forms): no changes are observed | Hygroscopicity (DVS), in words (DVS test of salt forms): low hygroscopicity | Water Sorption at 90% Relative Humidity (DVS test of salt forms): 0.80% Water Sorption at 90% Relative Humidity | Desorption (DVS test of salt forms; cycle 1, 0% humidity): −0.04% | Sorption (DVS test of salt forms; cycle 1, 0% humidity): 0.00% | Desorption (DVS test of salt forms; cycle 1, 10% humidity): −0.01% | Sorption (DVS test of salt forms; cycle 1, 10% humidity): 0.02% | Desorption (DVS test of salt forms; cycle 1, 20% humidity): 0.01% | Sorption (DVS test of salt forms; cycle 1, 20% humidity): 0.04% | Desorption (DVS test of salt forms; cycle 1, 30% humidity): 0.04% | Sorption (DVS test of salt forms; cycle 1, 30% humidity): 0.06% | Desorption (DVS test of salt forms; cycle 1, 40% humidity): 0.09% | Sorption (DVS test of salt forms; cycle 1, 40% humidity): 0.10% | Desorption (DVS test of salt forms; cycle 1, 50% humidity): 0.15% | Sorption (DVS test of salt forms; cycle 1, 50% humidity): 0.14% | Desorption (DVS test of salt forms; cycle 1, 60% humidity): 0.21% | Sorption (DVS test of salt forms; cycle 1, 60% humidity): 0.20% | Desorption (DVS test of salt forms; cycle 1, 70% humidity): 0.31% | Sorption (DVS test of salt forms; cycle 1, 70% humidity): 0.29% | Desorption (DVS test of salt forms; cycle 1, 80% humidity): 0.46% | Sorption (DVS test of salt forms; cycle 1, 80% humidity): 0.44% | Desorption (DVS test of salt forms; cycle 1, 90% humidity): 0.80% | Sorption (DVS test of salt forms; cycle 1, 90% humidity): 0.80% | Desorption (DVS test of salt forms; cycle 2, 0% humidity): −0.05% | Sorption (DVS test of salt forms; cycle 2, 0% humidity): −0.04% | Desorption (DVS test of salt forms; cycle 2, 10% humidity): −0.03% | Sorption (DVS test of salt forms; cycle 2, 10% humidity): −0.02% | Desorption (DVS test of salt forms; cycle 2, 20% humidity): 0.00% | Sorption (DVS test of salt forms; cycle 2, 20% humidity): 0.01% | Desorption (DVS test of salt forms; cycle 2, 30% humidity): 0.03% | Sorption (DVS test of salt forms; cycle 2, 30% humidity): 0.04% | Desorption (DVS test of salt forms; cycle 2, 40% humidity): 0.07% | Sorption (DVS test of salt forms; cycle 2, 40% humidity): 0.07% | Desorption (DVS test of salt forms; cycle 2, 50% humidity): 0.13% | Sorption (DVS test of salt forms; cycle 2, 50% humidity): 0.12% | Desorption (DVS test of salt forms; cycle 2, 60% humidity): 0.20% | Sorption (DVS test of salt forms; cycle 2, 60% humidity): 0.18% | Desorption (DVS test of salt forms; cycle 2, 70% humidity): 0.29% | Sorption (DVS test of salt forms; cycle 2, 70% humidity): 0.27% | Desorption (DVS test of salt forms; cycle 2, 80% humidity): 0.45% | Sorption (DVS test of salt forms; cycle 2, 80% humidity): 0.43% | Desorption (DVS test of salt forms; cycle 2, 90% humidity): 0.79% | Sorption (DVS test of salt forms; cycle 2, 90% humidity): 0.79% | Solubility at 25° C. ([1]; Buffer pH = 6.8, 24 hours): <LOD | Solubility at 25° C. ([1]; FaSSIF (pH = 6.5), 24 hours): <LOD | Solubility at 25° C. ([1]; FeSSIF (pH = 5.0), 24 hours): <LOD | Solubility at 25° C. ([1]; SGF (pH = 1.2), 24 hours): <LOD | Solubility at 25° C. ([1]; Water, 24 hours): <LOD | Color Change [2, 3]: No Change | Purity [2, 3]: 99.66% | Salt Type [2, 3]: No Change | Color Change [2, 4]: No Change | Purity [2, 4]: 99.33% | Salt Type [2, 4]: No Change | Color Change [2, 5]: Turn Yellow | Purity [2, 5]: 99.49% | Salt Type [2, 5]: No Change | Color Change [2, 6]: Turn Yellow | Purity [2, 6]: 99.49% | Salt Type [2, 6]: No Change | Purity ([2]; Initial State): 99.18% | Color Change ([2]; Initial State (colour)): White | Color Change [2, 7]: No Change | Purity [2, 7]: 99.67% | Salt Type [2, 7]: No Change | Color Change [2, 8]: No Change | Purity [2, 8]: 99.01% | Salt Type [2, 8]: No Change
